From paper PMC11432763, “Machine Learning-Driven Discovery and Evaluation of Antimicrobial Peptides from Crassostrea gigas Mucus Proteome” (Marine Drugs, 2024)
Where a SMILES comes first, the peptide text is derived from it.

Test system: HEK293T cells
Assay: Cytotoxicity assay (CCK-8)
Type: cell-based
Conditions: 24 h; for Cytotoxicity within the concentration range detected (in words): peptide 1-50 μM, CCK-8, OD450, n = 5; for Cytotoxicity at 50 μM (in words): CCK-8, n = 5, compared with 0 μM
Experimental: HEK293T cells were cultured in DMEM (10% FBS, 1% penicillin–streptomycin solution) in a 37 °C, 5% CO2 cell culture incubator until reaching the logarithmic growth phasein. As previously described, cells were seeded into a 96-well plate at 100 μL per well and pre-incubated for 48 h. After removing the medium, 10 μL of antimicrobial peptide solutions (1, 2, 5, 10, 20, and 50 μM) were added to each well with five replicate wells per concentration. The HEK293T cells cultured with DMEM (0 μM peptide) constituted the untreated group and plates with no cells were as blank group. Plates were then cultured for 24 h. Subsequently, 10 μL of CCK-8 solution was added to each well and incubated for 3 h under the same conditions using the Cell Counting Kit-8 (CCK-8, K1018, APE×BIO, Technology LLC, Houston, TX, USA). Absorbance at 450 nm was measured using a microplate reader. Cell viability was calculated using the following formula: Cell viability (%) = [Treated group OD (450) − Blank group OD (450)]/[Untreated group OD (450) − Blank group OD (450)] × 100%.

Compound	Cytotoxicity within the concentration range detected (in words)	Cytotoxicity at 50 μM (in words)	also measured
KVWQRVKVKML [P3, peptide … derived from Crassostrea gigas mucous proteins, selected by machine learning]	no cytotoxicity	–	–
FAKLLLRLPALR [P1, peptide … derived from Crassostrea gigas mucous proteins, selected by machine learning]	no cytotoxicity	–	–
WKQIKFYVYNRILKKRK [P2, peptide … derived from Crassostrea gigas mucous proteins, selected by machine learning]	–	significant cell death	–
LLFRRRLL [S1]	–	significant cell death	–
CC[C@H](C)[C@H](NC(=O)[C@H](CCCCN)NC(=O)[C@H](Cc1ccc(O)cc1)NC(=O)[C@H](CCCCN)NC(=O)[C@H](CCCCN)NC(=O)[C@H](Cc1ccccc1)NC(=O)[C@H](CCCNC(=N)N)NC(=O)[C@H](CC(N)=O)NC(=O)[C@H](CCSC)NC(=O)[C@@H](NC(=O)[C@H](CC(C)C)NC(=O)[C@H](Cc1ccc(O)cc1)NC(=O)[C@@H](NC(=O)[C@H](C)NC(=O)[C@H](CCCNC(=N)N)NC(=O)[C@H](CCSC)NC(=O)[C@H](CCCCN)NC(=O)[C@H](CCCCN)NC(=O)[C@H](C)NC(=O)[C@H](CCCNC(=N)N)NC(=O)[C@H](CCCNC(=N)N)NC(=O)[C@@H](N)CCCNC(=N)N)[C@@H](C)CC)[C@@H](C)CC)C(=O)O [P4] (H-RRRAKKMRAIYLIMNRFKKYKI-OH; N-terminus and C-terminus assumed)	–	significant cell death	–
CC(C)C[C@H](NC(=O)[C@@H](N)CC(C)C)C(=O)N[C@@H](CCCNC(=N)N)C(=O)N[C@@H](CCCNC(=N)N)C(=O)N[C@@H](CCCCN)C(=O)N[C@@H](Cc1ccccc1)C(=O)N[C@@H](Cc1ccccc1)C(=O)N[C@@H](Cc1ccccc1)C(=O)O [S2] (H-LLRRKFFF-OH; N-terminus and C-terminus assumed)	–	–	Cytotoxicity at 10 μM (in words) (10 μM, CCK-8, n = 5): significant cytotoxic effects; Cell viability (at 10, 20 and 50 μM, CCK-8, n = 5): ≤ 75%
